Source: patent publication US20250206732A1, “COMPOUNDS AND METHODS FOR THE TARGETED DEGRADATION OF KRAS” (Arvinas Operations, Inc., priority 2022, published 2025)

Molecular target: T1, AsPC-1 HiBiT-KRASG12D (Homo sapiens, UniProt P01116, G12D)
T1 construct: insert the HiBiT tag onto the N-terminus of one or more of the endogenous KRAS alleles; endogenous in cells; host or cells: AsPC-1 (ATCC CRL-1682), CRISPR-Cas9 knock-in clone, one tagged allele
Assay: HiBiT degradation assay (G12D), AsPC-1 HiBiT-KRASG12D cells
Format: cell-based
Conditions: 24 hours treatment; for Dmax: ASPC1, AsPC-1 HiBiT-KRASG12D cells, maximum degradation observed; for DC50: AsPC-1 HiBiT-KRASG12D cells, HiBiT luminescence
In short: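 Steps: treat HiBiT-KRASG12D AsPC-1 cells with compound for 24 hours; add alamar blue to 1× and incubate 4 hours to assess viability; wash with PBS; add HiBiT lytic detection reagent, incubate 45 minutes at room temperature; read luminescence. Viability fluorescence is normalized to DMSO wells.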

T1 sequence (P01116 1-188 isoform P01116-2 G12D): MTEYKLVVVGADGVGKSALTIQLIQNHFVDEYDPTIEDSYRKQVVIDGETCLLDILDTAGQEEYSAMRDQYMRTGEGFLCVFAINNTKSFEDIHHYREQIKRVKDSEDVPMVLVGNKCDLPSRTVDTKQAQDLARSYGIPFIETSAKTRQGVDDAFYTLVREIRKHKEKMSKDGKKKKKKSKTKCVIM

## CCc1cccc2cc(O)cc(-c3ncc4c(N5CC6CCC(C5)N6)nc(OCCN5CCN(CC6CN(c7cc([C@H](C(=O)N8C[C@H](O)C[C@H]8C(=O)N[C@@H](C)c8ccc(-c9scnc9C)cc8)C(C)C)on7)C6)CC5)nc4c3F)c12 [Compound 220, (2S,4R)-1-[(2R)-2-(3-{3-[(4-{2-[(4-{3,8-diazabicyclo[3.2.1]octan-3-yl}-7-(8-ethyl-3-hydroxynaphthalen-1-yl)-8-fluoropyrido[4,3-d]pyrimidin-2-yl)oxy]ethyl}piperazin-1-yl)methyl]azetidin-1-yl}-1,2-oxazol-5-yl)-3-methylbutanoyl]-4-hydroxy-N-[(1S)-1-[4-(4-methyl-1,3-thiazol-5-yl)phenyl]ethyl]pyrrolidine-2-carboxamide]
  Dmax: 80 to 100%
  DC50: < 0.6 µM

## C#Cc1c(F)ccc2cccc(-c3ncc4c(N5CC6CCC(C5)N6)nc(OC[C@]56CCCN5[C@H](COc5cc([C@H](C(=O)N7C[C@H](O)C[C@H]7C(=O)N[C@@H](C)c7ccc(-c8scnc8C)cc7)C(C)C)on5)CC6)nc4c3F)c12 [Compound 316, (2S,4R)-1-[(2S)-2-[3-[[(3S,8R)-8-[[4-(3,8-diazabicyclo[3.2.1]octan-3-yl)-7-(8-ethynyl-7-fluoro-1-naphthyl)-8-fluoro-pyrido[4,3-d]pyrimidin-2-yl]oxymethyl]-1,2,3,5,6,7-hexahydropyrrolizin-3-yl]methoxy]isoxazol-5-yl]-3-methyl-butanoyl]-4-hydroxy-N-[(1S)-1-[4-(4-methylthiazol-5-yl)phenyl]ethyl]pyrrolidine-2-carboxamide]
  Dmax: 20 to 60%
  DC50: < 0.6 µM

## Cc1ncsc1-c1ccc([C@H](C)NC(=O)[C@@H]2C[C@@H](O)CN2C(=O)[C@@H](c2cc(N3CCN(C(=O)OC[C@@H]4CC[C@@]5(COc6nc(N7CC8CCC(C7)N8)c7cnc(-c8cc(O)cc9cccc(Cl)c89)c(F)c7n6)CCCN45)CC3)no2)C(C)C)cc1 (relative stereo) [Compound 268, ((3S,7aR)-7a-(((4-((1R,5S)-3,8-diazabicyclo[3.2.1]octan-3-yl)-7-(8-chloro-3-hydroxynaphthalen-1-yl)-8-fluoropyrido[4,3-d]pyrimidin-2-yl)oxy)methyl)hexahydro-1H-pyrrolizin-3-yl)methyl 4-(5-((R)-1-((2S,4R)-4-hydroxy-2-(((S)-1-(4-(4-methylthiazol-5-yl)phenyl)ethyl)carbamoyl)pyrrolidin-1-yl)-3-methyl-1-oxobutan-2-yl)isoxazol-3-yl) piperazine-1-carboxylate]
  Dmax: 80 to 100%
  DC50: < 0.6 µM

## CCc1cccc2cc(O)cc(-c3ncc4c(N5CC6CCC(C5)N6)nc(OCCN5CCC(F)(COc6cc([C@H](C(=O)N7C[C@H](O)C[C@H]7C(=O)N[C@@H](C)c7ccc(-c8scnc8C)cc7)C(C)C)on6)CC5)nc4c3F)c12 [Compound 337, (2S,4R)-1-[(2R)-2-{3-[(1-{2-[(4-{3,8-diazabicyclo[3.2.1]octan-3-yl}-7-(8-ethyl-3-hydroxynaphthalen-1-yl)-8-fluoropyrido[4,3-d]pyrimidin-2-yl)oxy]ethyl}-4-fluoropiperidin-4-yl)methoxy]-1,2-oxazol-5-yl}-3-methylbutanoyl]-4-hydroxy-N-[(1S)-1-[4-(4-methyl-1,3-thiazol-5-yl)phenyl]ethyl]pyrrolidine-2-carboxamide]
  Dmax: 80 to 100%
  DC50: < 0.6 µM

## CCc1cccc2cc(O)cc(-c3ncc4c(N5CC6CCC(C5)N6)nc(OC[C@]56CCCN5[C@H](COC(=O)N5CCN(c7cc([C@@H](C(=O)N8C[C@H](O)C[C@H]8C(=O)N[C@@H](C)c8ccc(C#N)cc8)C(C)C)on7)CC5)CC6)nc4c3F)c12 [Compound 67, [(3S,7aR)-7a-{[(4-{3,8-diazabicyclo[3.2.1]octan-3-yl}-7-(8-ethyl-3-hydroxynaphthalen-1-yl)-8-fluoropyrido[4,3-d]pyrimidin-2-yl)oxy]methyl}-hexahydro-1H-pyrrolizin-3-yl]methyl 4-{5-[(2S)-1-[(2S,4R)-2-{[(1S)-1-(4-cyanophenyl)ethyl]carbamoyl}-4-hydroxypyrrolidin-1-yl]-3-methyl-1-oxobutan-2-yl]-1,2-oxazol-3-yl}piperazine-1-carboxylate]
  DC50: > 3 µM

## CCc1cccc2cc(O)cc(-c3ncc4c(N5CC6CCC(C5)N6)nc(OCCN5CCC(F)(CN6CCN(c7cc([C@H](C(=O)N8C[C@H](O)C[C@H]8C(=O)N[C@@H](C)c8ccc(-c9scnc9C)cc8)C(C)C)on7)[C@H](C)C6)CC5)nc4c3F)c12 [Compound 194, (2S,4R)-1-[(2R)-2-{3-[(2R)-4-[(1-{2-[(4-{3,8-diazabicyclo[3.2.1]octan-3-yl}-7-(8-ethyl-3-hydroxynaphthalen-1-yl)-8-fluoropyrido[4,3-d]pyrimidin-2-yl)oxy]ethyl}-4-fluoropiperidin-4-yl)methyl]-2-methylpiperazin-1-yl]-1,2-oxazol-5-yl}-3-methylbutanoyl]-4-hydroxy-N-[(1S)-1-[4-(4-methyl-1,3-thiazol-5-yl)phenyl]ethyl]pyrrolidine-2-carboxamide]
  Dmax: 80 to 100%
  DC50: < 0.6 µM

## CCc1cccc2cc(O)cc(-c3ncc4c(N5CC6CCC(C5)N6)nc(OCCN5CCC(CCC6CN(c7cc([C@H](C(=O)N8C[C@H](O)C[C@H]8C(=O)N[C@@H](C)c8ccc(-c9scnc9C)cc8)C(C)C)on7)C6)CC5)nc4c3F)c12 (single isomer, unassigned) [Compound 250, (2S,4R)-1-[(2R*)-2-(3-{3-[2-(1-{2-[(4-{3,8-diazabicyclo[3.2.1]octan-3-yl}-7-(8-ethyl-3-hydroxynaphthalen-1-yl)-8-fluoropyrido[4,3-d]pyrimidin-2-yl)oxy]ethyl}piperidin-4-yl)ethyl]azetidin-1-yl}-1,2-oxazol-5-yl)-3-methylbutanoyl]-4-hydroxy-N-[(1S)-1-[4-(4-methyl-1,3-thiazol-5-yl)phenyl]ethyl] pyrrolidine-2-carboxamide]
  Dmax: 80 to 100%
  DC50: < 0.6 µM

## CCc1cccc2cc(O)cc(-c3ncc4c(N5CC6CCC(C5)N6)nc(OC[C@]56CCCN5[C@@H](COC(=O)N5CCN(c7cc([C@H](C(=O)N8C[C@H](O)C[C@H]8C(=O)N[C@@H](C)c8ccc(-c9scnc9C)cc8)C(C)C)on7)CC5)CC6)nc4c3F)c12 (relative stereo) [Compound 110, [(3R*,7aR**)-7a-{[(4-{3,8-diazabicyclo[3.2.1]octan-3-yl}-7-(8-ethyl-3-hydroxynaphthalen-1-yl)-8-fluoropyrido[4,3-d]pyrimidin-2-yl)oxy]methyl}-hexahydro-1H-pyrrolizin-3-yl]methyl 4-{5-[(2R***)-1-[(2S,4R)-4-hydroxy-2-{[(1S)-1-[4-(4-methyl-1,3-thiazol-5-yl)phenyl]ethyl]carbamoyl}pyrrolidin-1-yl]-3-methyl-1-oxobutan-2-yl]-1,2-oxazol-3-yl}piperazine-1-carboxylate]
  Dmax: 80 to 100%
  DC50: < 0.6 µM

## CCc1cccc2cc(O)cc(-c3ncc4c(N5CC6CCC(C5)N6)nc(OC[C@]56CCCN5[C@H](COC(=O)N5C[C@H](C)N(c7cc([C@H](C(=O)N8C[C@H](O)C[C@H]8C(=O)N[C@@H](C)c8ccc(-c9scnc9C)cc8)C(C)C)on7)C[C@H]5C)CC6)nc4c3F)c12 [Compound 296, [(3S,8R)-8-[[4-(3,8-diazabicyclo[3.2.1]octan-3-yl)-7-(8-ethyl-3-hydroxy-1-naphthyl)-8-fluoro-pyrido[4,3-d]pyrimidin-2-yl]oxymethyl]-1,2,3,5,6,7-hexahydropyrrolizin-3-yl]methyl (2R,5S)-4-[5-[(1R)-1-[(2S,4R)-4-hydroxy-2-[[(1S)-1-[4-(4-methylthiazol-5-yl)phenyl]ethyl]carbamoyl]pyrrolidine-1-carbonyl]-2-methyl-propyl]isoxazol-3-yl]-2,5-dimethyl-piperazine-1-carboxylate]
  Dmax: 80 to 100%
  DC50: < 0.6 µM

## CCc1cccc2cc(O)cc(-c3ncc4c(N5CC6CCC(C5)N6)nc(OC[C@]56CCCN5[C@H](COC(=O)N5CCN(c7cc([C@H](C(=O)N8C[C@H](O)C[C@H]8C(=O)N[C@@H](C)c8ccc(-c9scnc9C)cc8)C(C)C)on7)CC5)CC6)nc4c3F)c12 [Compound 105, [(3S,7aR)-7a-{[(4-{3,8-diazabicyclo[3.2.1]octan-3-yl}-7-(8-ethyl-3-hydroxynaphthalen-1-yl)-8-fluoropyrido[4,3-d]pyrimidin-2-yl)oxy]methyl}-hexahydro-1H-pyrrolizin-3-yl]methyl 4-{5-[(2R)-1-[(2S,4R)-4-hydroxy-2-{[(1S)-1-[4-(4-methyl-1,3-thiazol-5-yl)phenyl]ethyl]carbamoyl}pyrrolidin-1-yl]-3-methyl-1-oxobutan-2-yl]-1,2-oxazol-3-yl}piperazine-1-carboxylate]
  Dmax: 80 to 100%
  DC50: < 0.6 µM

## CCc1cccc2cc(O)cc(-c3ncc4c(N5CC6CCC(C5)N6)nc(OCCN5CC[C@@H]6[C@@H](CCN6c6cc([C@@H](C(=O)N7C[C@H](O)C[C@H]7C(=O)N[C@@H](C)c7ccc(-c8scnc8C)cc7)C(C)C)on6)C5)nc4c3F)c12 (relative stereo) [Compound 76, (2S,4R)-1-[(2R*)-2-{3-[(3aR**,7aR***)-5-{2-[(4-{3,8-diazabicyclo[3.2.1]octan-3-yl}-7-(8-ethyl-3-hydroxynaphthalen-1-yl)-8-fluoropyrido[4,3-d]pyrimidin-2-yl)oxy]ethyl}-octahydro-1H-pyrrolo[3,2-c]pyridin-1-yl]-1,2-oxazol-5-yl}-3-methylbutanoyl]-4-hydroxy-N-[(1S)-1-[4-(4-methyl-1,3-thiazol-5-yl)phenyl]ethyl]pyrrolidine-2-carboxamide]
  Dmax: 20 to 60%
  DC50: 1 to 3 µM

## C#Cc1c(F)ccc2cc(O)cc(-c3ncc4c(N5CC6CCC(C5)N6)nc(OC[C@]56CCCN5[C@H](COC(=O)N5CC(Oc7cc([C@@H](C(=O)N8C[C@H](O)C[C@H]8C(=O)N[C@@H](C)c8ccc(-c9scnc9C)cc8)C(C)C)on7)C5)CC6)nc4c3F)c12 [Compound 303]
  Dmax: 60 to 80%
  DC50: < 0.6 µM
